# In article PMC9569971, “New Oxazolo[5,4-d]pyrimidines as Potential Anticancer Agents: Their Design, Synthesis, and In Vitro Biological Activity Research” (International Journal of Molecular Sciences, 2022):
# Tests used:
# [1] = tested on: breast adenocarcinoma (MCF7); test: MTT viability assay, MCF7; format: cell-based, human; settings: Homo sapiens; MCF7, MTT, tested 1–500 µM
# p53 = p53 Human ELISA Kit, HT29 lysate; format: cell-based; settings: lysate of HT29 cells treated with 3g; SD ±0.97
# Method: The assay was performed on a lysate of the HT29 colon adenocarcinoma cell line treated with compound 3g. The microwells of the 96-well plate were washed 2 times with approximately 400 µL of washing buffer per well. The washing buffer was left in the wells for approximately 15 s prior to aspiration. Care was taken not to scratch the surface of the microwells. After the final rinsing step, the wells were emptied. An absorbent swab was used to remove excess wash buffer. Standard dilutions were applied to the microwell plate. Two rows of human p53 standard were prepared at dilutions ranging from 50.00 to 0.78 U/mL. […] The color change was monitored with an ELISA measured at 620 nm. The colored product was formed in proportion to the quantity of human p53 protein present in the sample and the standard. […] The results were read immediately after the addition of the enzyme stop solution. Absorbance was measured with a spectrophotometer at 450 nm. A standard curve was prepared from 7 dilutions of the human p53 standard from which the values for compound 3g were read.
# Biological assays were performed in three independent replicates, and each replicate used four samples. […] For the assessment of cytotoxicity, mathematical models were developed using the GraphPad PRISM software, based on which CC50 was determined. […]
# HT29 cells = test: Migration (scratch) assay; format: cell-based, human; settings: control T 155558.2, control T0 544366.45
# Method: The scratch test was performed to verify that the tested compound 3g could inhibit the formation of metastases by the HT29 cell line. The seeded HT29 cells were incubated until they formed a monolayer over the entire surface of the well. Then, a scratch test was performed by making a scratch in the monolayer and measuring its width—that is, To, amounting to 544,366.45 μm^2. Freshly prepared compounds were added to the HT29 cells at concentrations of 10, 25, 50, and 100 μM. Breeding plates were incubated for 24 h. The next day, scratch width was measured again using the ImageJ open-source platform. […] The lowest cellular overgrowth of HT29 culture occurred at the concentration of 100 μM for the compound. Compound 3g inhibited the migration of HT29 cells more strongly than the reference drugs, showing that it has the potential to inhibit metastasis. The width of the scratch after 24 h when no compound was applied to the cells was used as a control (T = 155,558.2 μm^2).
# All cell lines were grown in 5% CO2 at 95% humidity and 37 °C, with both morphology and confluence assessed twice per week. When the confluence was greater than 70%, adherent cell lines were detached from the bottle surface with a TrypLE solution and then used in assays or reduced. The cells were collected into centrifuge tubes and centrifuged at 1000× g for 5 min at room temperature. The supernatant was removed to dry. The cell pellets were then resuspended in an appropriate medium. The cells were counted using a Bürker chamber and resuspended in 96-well plates to a cell density of 10,000 cells per well for MTT assay. For the rhodamine accumulation test and the detection of apoptosis assay, cells were seeded at a density of 30,000 per well. In the migration assay, cells were seeded at a density of 20,000 per well, and monolayer formation was awaited.
# After seeding, HT29 cells were incubated until they formed a monolayer over the entire surface of the well. A scratch was made on the surface overgrown with cells, and then photomicrographs of the scratch were taken using the EVOS FL microscope. The freshly prepared compound 3g and the reference drugs were added at concentrations of 10, 25, 50, and 100 µM. Then, they were incubated for 24 h, and micrographs were performed at that time using the EVOS FL microscope. The scratch width was measured using the ImageJ open-source platform. The measurement of scratch width was also performed after 24 h without adding compounds.
structure (smiles),measurement,setting,value
"Cc1noc(N)c1-c1nc2c(NCCCN(C)C)ncnc2o1 [Compound 3g, 2-(5-Amino-3-methylisoxazol-4-yl)-7-N-[3-(N,N-dimethylamino)propyl]aminooxazolo[5,4-d]pyrimidine]",CC50,[1],209 ± 9.67 µM
same,p53 concentration,p53,4.22 [U/mL]
same,"scratch width after 24 h, mean",HT29 cells; 10 μM,180844 μm^2
same,"scratch width after 24 h, mean",HT29 cells; 25 μM,218581.6 μm^2
same,"scratch width after 24 h, mean",HT29 cells; 50 μM,245687.8 μm^2
same,"scratch width after 24 h, mean",HT29 cells; 100 μM,314566.8 μm^2
